Test results published in patent US5925372A, “Mixed solvent mutually enhanced transdermal therapeutic system” (Novartis Corporation, priority 1991, dated 1999).
Like-named read-outs stand apart in the source and are kept apart here.

Assays:
[1] = Charge state in aqueous solutions; type: physicochemical
[2] = type: in vitro ADME, human; conditions: 0.7 volume fraction of ethanol; active agent at saturation
From the text: FIG. 4 is a graph of the flux of (±) trans-1,3,4,4a,5,10b-hexahydro-4-propyl-2H-[1]benzopyrano[3,4-b]pyridin-9-ol monohydrochloride, an ionizable drug which is a dopamine autoreceptor agonist, across human epidermis from ethanol: water (7:3) versus pH of that aqueous ethanol solution. In aqueous solutions, the drug is […] charged below pH 6.5.
This Example is based on FIG. 4 in which the dopamine autoreceptor agonist, (±)trans-1,3,4,4a,5,10b-hexahydro-4-propyl-2H-[1]benzopyrano[3,4-b]pyridin-9-ol, an ionizable drug, permeates skin. For this drug the optimal pH of an ethanol:water donor which is 0.7 volume fraction of ethanol is in the range of 4. A microporous membrane such as a microporous polypropylene and a silicone adhesive may be used. The active agent is present at saturation.

[3] = Procedure: FIG. 2 is a graph of the steady-state flux of ethanol across human epidermis versus the volume fraction of ethanol in the donor solution.
This Example is based on FIGS. 1-3. […] The reservoir contains 1.7 ml of ethanol, 0.3 ml water, 200 mg of progesterone as the drug, and 2% Klucel as a gelling agent. […] A volume fraction of 0.85 is chosen to allow for the back flux of water and depletion of ethanol during the use of the system.

[4] = Fluxes through ethylene vinyl acetate membranes (Table 1); conditions: for Nitroglycerin flux through ethylene vinyl acetate membrane: ethanol:water (7:3) reservoir saturated with nitroglycerin on lactose; for ^3 H2 O flux through ethylene vinyl acetate membrane: ethanol:water (7:3) reservoir
Procedure: (§1) For convenience purposes, this is measured by placing a portion of membrane or membrane/adhesive laminate in a diffusion cell and filling one side with a 70%, aqueous ethanol. After a period of time the amounts of water and alkanol that have crossed the membrane are determined. Typically, when measuring ethanol flux, the receiver side is water. When measuring water flux, either a) the donor side is ^3 H2 O and the receiver side is water or b) the donor side is water and the receiver side is air.

[5] = commercial estradiol system, cited from earlier work
[6] = Fluxes of nitroglycerin and ethanol through 32.8% vinyl acetate membrane plus skin with and without silicone face adhesive (Table 3)
From the text: (§2) In current-marketed transdermal devices, the adhesive is typically between 1.5 and 3 mils thick and is on the face of the device.

[7] = Fluxes of nitroglycerin through skin and ethylene vinyl acetate membranes (Table 2); type: in vitro ADME
[8] = Flux of nitroglycerin and ethanol through epidermis, with and without membrane (FIGS. 5 and 6); conditions: FIG. 6
From the text: FIG. 5 is a graph of the flux of nitroglycerin across epidermis versus the volume fraction of ethanol in the aqueous ethanol reservoir.
FIG. 6 is a graph of the flux of nitroglycerin versus the flux of ethanol for two different membrane thicknesses and epidermis as compared to epidermis alone.
These Examples are based on FIGS. 5 and 6. A 0.65 volume fraction of ethanol is used in the reservoir. The systems have a 10 cm^2 surface area, and use a polyester impermeable backing, a polyurethane membrane, and a silicone adhesive. […] Above a volume fraction of 0.8 ethanol, a safety hazard or transportation law infraction may be incurred with nitroglycerin unless the nitroglycerin is kept below 10%.

[9] = Water and ethanol flux through the combined membrane adhesive laminate; conditions: 32.8% vinyl acetate membrane plus 2 mil silicone face adhesive
Procedure: as §1, §2

[10] = cited from earlier work
[11] = cited from earlier work; remark: listed apart in the source
[12] = cited from earlier work; remark: listed apart in the source
[13] = Steady-state flux of progesterone across the epidermis versus volume fraction of ethanol in donor (FIG. 1); type: in vitro ADME
From the text: (§3) This Example is based on FIGS. 1-3.

[14] = Flux of progesterone across membrane and adhesive on human epidermis (FIG. 3); type: in vitro ADME; conditions: 1 mil polyurethane membrane and silicone adhesive
From the text: FIG. 3 is a graph of the flux of progesterone across a membrane and adhesive on human epidermis versus volume fraction of ethanol in the aqueous ethanol reservoir.
as §3

[15] = cited from earlier work; remark: listed apart in the source

Question: For `CCCN1CCC[C@@H]2c3cc(O)ccc3OC[C@H]21.Cl` (racemic) [(±) trans-1,3,4,4a,5,10b-hexahydro-4-propyl-2H-[1]benzopyrano[3,4-b]pyridin-9-ol monohydrochloride], which “pH below which the drug is negatively charged in aqueous solutions” value [1] is on record?
Answer: Its value is under 6.5.

Question: Which “Optimal pH of ethanol:water donor for skin permeation” value [2] does the source give for `CCCN1CCC[C@@H]2c3cc(O)ccc3OC[C@H]21` (racemic) [(±)trans-1,3,4,4a,5,10b-hexahydro-4-propyl-2H-[1]benzopyrano[3,4-b]pyridin-9-ol] here?
Answer: Its value is about 4.

Question: With `CCO` [Ethanol, ethanol] as the compound, how does the “Volume fraction of ethanol at which ethanol flux through skin is optimized” value [3] read?
Answer: The value was 0.4-0.85 volume fraction of ethanol.

Question: What about the “Dependence of permeation on vinyl acetate content” value [4] of the same compound?
Answer: The value was “increase with vinyl acetate content”.

Question: What about the “Ethanol permeability of rate-limiting membrane” value ([5]; neat ethanol gel reservoir) of the same compound?
Answer: The value was about 400 mcg/cm^2 /hr.

Question: Which “Nitroglycerin flux through ethylene vinyl acetate membrane” value ([4]; vinyl acetate content 9%) does the source give for `O=[N+]([O-])OCC(CO[N+](=O)[O-])O[N+](=O)[O-]` [Nitroglycerin, nitroglycerin] here?
Answer: The value was 2.4 ± 0.3 mg/h.

Question: And the “Nitroglycerin flux through ethylene vinyl acetate membrane” value ([4]; vinyl acetate content 18%)?
Answer: The value was 5 ± 0.7 mg/h.

Question: What about the “Nitroglycerin flux through ethylene vinyl acetate membrane” value ([4]; vinyl acetate content 28%) of the same compound?
Answer: The value was 10 ± 0.5 mg/h.

Question: What about the “Nitroglycerin flux through ethylene vinyl acetate membrane” value ([4]; vinyl acetate content 40%) of the same compound?
Answer: Its value is 21 ± 0.3 mg/h.

Question: And the “Improvement of nitroglycerin flux by optimization of adhesive and membrane layers” value ([6]; 32.8% vinyl acetate membrane, peripheral versus 2 mil silicone face adhesive)?
Answer: Its value is “more than a factor of two”.

Question: What about the Nitroglycerin flux ([6]; Membrane alone and skin, 32.8% vinyl acetate membrane, ethanol:water (85:15) reservoir) of the same compound?
Answer: Its Nitroglycerin flux is 82 ± 26 mcg/cm^2 /hr.

Question: What about the Nitroglycerin flux ([6]; Membrane and adhesive (2 mil silicone face adhesive) and skin, 32.8% vinyl acetate, ethanol:water (85:15) reservoir) of the same compound?
Answer: Its Nitroglycerin flux is 37 ± 10 mcg/cm^2 /hr.

Question: What about the Nitroglycerin flux ([6]; Skin alone from ethanol:water (70:30)) of the same compound?
Answer: The Nitroglycerin flux was 85 ± 15 mcg/cm^2 /hr.

Question: What about the Nitroglycerin flux ([6]; Skin alone without ethanol in donor) of the same compound?
Answer: Its Nitroglycerin flux is 15 ± 7 mcg/cm^2 /hr.

Question: And the “Rate control of nitroglycerin permeation” value ([7]; 1 mil ethylene/vinyl acetate membranes)?
Answer: The value was “the skin controls the rate of nitroglycerin permeation”.

Question: What about the “Improvement of nitroglycerin flux through skin over the best of previously disclosed systems” value ([7]; membranes of higher vinyl acetate content) of the same compound?
Answer: Its value is at most 2 factor.

Question: And the “Flux of nitroglycerin through skin and ethylene vinyl acetate membrane” value ([7]; vinyl acetate content 9%)?
Answer: Its value is 30 mcg/cm^2 /hr.

Question: And the “Flux of nitroglycerin through skin and ethylene vinyl acetate membrane” value ([7]; vinyl acetate content 18%)?
Answer: The value was 60 mcg/cm^2 /hr.

Question: What about the “Flux of nitroglycerin through skin and ethylene vinyl acetate membrane” value ([7]; vinyl acetate content 28%) of the same compound?
Answer: The value was 66 mcg/cm^2 /hr.

Question: What about the “Flux of nitroglycerin through skin and ethylene vinyl acetate membrane” value ([7]; vinyl acetate content 40%) of the same compound?
Answer: The value was 120 mcg/cm^2 /hr.

Question: What about the “Relation of nitroglycerin flux versus ethanol flux through skin and membrane adhesive laminates” value [8] of the same compound?
Answer: Its value is “The nitroglycerin follows the ethanol through skin”.

Question: For `[3H]O[3H]` [^3 H2 O, tritiated water], which “Dependence of permeation on vinyl acetate content” value ([4]; until reservoir composition of ethanol and water is delivered to skin surface) is on record?
Answer: The value was “increase with vinyl acetate content”.

Question: And the “^3 H2 O flux through ethylene vinyl acetate membrane” value ([4]; vinyl acetate content 9%)?
Answer: The value was 0.5 mg/h.

Question: What about the “^3 H2 O flux through ethylene vinyl acetate membrane” value ([4]; vinyl acetate content 18%) of the same compound?
Answer: The value was 4 ± 0.3 mg/h.

Question: What about the “^3 H2 O flux through ethylene vinyl acetate membrane” value ([4]; vinyl acetate content 28%) of the same compound?
Answer: Its value is 17 ± 3 mg/h.

Question: And the “^3 H2 O flux through ethylene vinyl acetate membrane” value ([4]; vinyl acetate content 40%)?
Answer: The value was 63 ± 9 mg/h.

Question: What about the “Tritiated water flux through combined membrane adhesive laminate” value [9] of the same compound?
Answer: Its value is “smaller than the range disclosed by this invention”.

Question: With `C[C@]12CC[C@@H]3c4ccc(O)cc4CC[C@H]3[C@@H]1CC[C@@H]2O` [estradiol] as the compound, how does the “Flux of estradiol through hairless mouse skin, neat versus aqueous ethanol” value [10] read?
Answer: Its value is “neat ethanol increases skin permeation better than aqueous ethanol”.

Question: What about the “Skin permeation of estradiol from neat ethanol versus aqueous ethanol donor solutions” value [11] of the same compound?
Answer: The value was “skin permeation from neat ethanol is as good or better than from aqueous ethanol donor solutions”.

Question: For `C#C[C@]1(O)CC[C@H]2[C@@H]3CCC4=CC(=O)CC[C@@H]4[C@H]3CC[C@@]21CC` [levonorgestrel], which “Flux of levonorgestrel through rat skin, neat versus aqueous ethanol” value [12] is on record?
Answer: Its value is “neat ethanol increases skin permeation better than aqueous ethanol”.

Question: Which “Progesterone flux across epidermis from optimized aqueous ethanol reservoir” value ([13]; compared to both neat water and neat ethanol) does the source give for `CC(=O)[C@H]1CC[C@H]2[C@@H]3CCC4=CC(=O)CC[C@]4(C)[C@H]3CC[C@]12C` [progesterone] here?
Answer: Its value is “large increase in the flux”.

Question: What about the “Volume fraction of ethanol at which progesterone flux through skin is optimized” value ([13]; not including the drug or gelling agent) of the same compound?
Answer: The value was 0.4-0.85 volume fraction of ethanol.

Question: And the “Volume fraction of ethanol at optimum of skin permeation with membrane and adhesive” value [14]?
Answer: The value was ~0.7 volume fraction of ethanol.

Question: With `O=C(O)c1ccccc1O` [salicylic acid] as the compound, how does the “Flux of salicylic acid through human skin, neat versus aqueous ethanol” value [15] read?
Answer: Its value is “neat ethanol increases skin permeation better than aqueous ethanol”.

Question: For `O` [water], which “Water permeability of rate-limiting membrane” value [5] is on record?
Answer: The value was “relatively impermeable to water”.
